Measured values published in patent US20070270350A1, “Methods and Compositions for the Prevention and Treatment of Inflammatory Diseases or Conditions” (MUSC FOUNDATION FOR RESEARCH DEVELOPMENT, priority 2003, published 2007).
Each block holds one compound with its values, some of them ahead of it.

How the values were obtained:
[1] = system: iNOS; test: LPS/IFN-induced NO production and iNOS gene expression in primary astrocytes; format: cell-based, rat; conditions: for effect on D-PDMP mediated inhibition of NO production: glycosphingolipid 5 and 10 μM added with D-PDMP 50 μM, 0.5 hr before LPS/IFN
[2] = system: KA-treated rats; test: KA-induced seizure model (epilepsy model), rat hippocampus; format: in vivo; conditions: 3 days after KA
Procedure: FIG. 45. Experimental design for the use of statins as a therapeutic for kinic acid induced seizures (epilepsy model).
FIG. 46. […] The rats were orally pre-treated (7 days before) with atorvastatin (LP; 10 mg/kg) prior to KA (10 mg/kg, i.p.). At 3 days after KA injection, neuronal cell death in hippocampus was examined using cresyl violet stain.
FIG. 47. […] The rats were orally pre-treated (7 days before) with atorvastatin (LP; 10 mg/kg) prior to KA (10 mg/kg, i.p.). At 3 days after KA injection, infiltration of macrophages in the CA1 and CA3 regions of the hippocampus was examined using immunofluorescent labeling against for ED-1, as a marker of monocytes.
The rats were orally pre-treated (7 days before) with atorvastatin (LP; 10 mg/kg) prior to KA (10 mg/kg, i.p.). At 3 days after KA injection, neuronal cell death in the CA1 (A) and CA3 (B) regions of the hippocampus was examined using TUNNEL assay.
FIG. 49. […] The rats were orally pre-treated (7 days before) with lovastatin (Lov; 10 mg/kg) prior to KA (10 mg/kg, i.p.). At 3 days after KA injection, neuronal cell death in hippocampus was examined using cresyl violet stain.
(§1) FIG. 50A-C. […] The rats were orally pre-treated (7 days before) with atorvastatin (LP; 10 mg/kg) prior to KA (10 mg/kg, i.p.). At 3 days after KA injection, the expression of inflammatory genes (TNF-α, IL-1β, and iNOS) in hippocampus using real time PCR. The expression of each gene was normalized with GAPDH expression.
as §1, with “51A-C.” for “50A-C.”, “lovastatin (Lov;” for “atorvastatin (LP;”
Seizure index: stage 1, facial clonus; stage 2, nodding; stage 3, forelimb clonus; stage 4, forelimb clonus with rearing; stage 5, rearing, jumping, and falling. The rats were orally pre-treated (7 days before) with lovastatin or atorvastatin (Lov or LP; 10 mg/kg) prior to KA (10 mg/kg, i.p.).

[3] = system: iNOS; test: LPS-induced iNOS expression and iNOS promoter activity in primary astrocytes (AICAR); format: cell-based, rat; conditions: GGPP 10 μM, FPP 10 μM, mevalonate 10 mM with AICAR 1 mM
Procedure: Immunoblot Analysis: Cells were harvested in ice-cold lysis buffer (50 mM Tris-HCl, pH 7.4, containing 50 mM NaCl, 1 mM EDTA, 0.5 mM EGTA, 10% glycerol and protease inhibitor cocktail) and protein was estimated using Bradford reagent (Bio-Rad, USA). Fifty microgram of total protein/lane was separated by SDS-PAGE and blotted to nitrocellulose (Amersham Pharmacia Biotech). Blots were blocked for 1 h in 5% nonfat dry milk-TBS-0.1% Tween 20 and incubated overnight with primary antibody (1:1000) in 5% BSA-TBS-0.1% Tween 20 at 4° C. This was followed by incubation of 1 h with appropriate secondary peroxidase conjugated antibody (1:10,000, Sigma). Immunoreactivity was detected using the enhanced chemiluminescence detection method according to the manufacturer's instructions (Amersham Pharmacia Biotech) and subsequent exposure of the membrane to X-ray film. Antisense experiments: To decrease the levels of endogenous AMPK, astrocytes were pretreated for 48 h with 25 μm (of phosphothiorated antisense (AS) oligonucleotide ([NT]) directly against both the ? α1 and α2 ? subunits of AMPK (Culmsee et al., 2001) ? ? ? missense (MS) oligonucleotide ([NT]) was used in control cultures. Oligonucleotides were transfected with OligofectamineTM reagent as per manufacturer's instructions. Northern blot, gene array analysis and RT-PCR for cytokines expression: Total RNA was extracted with Trizol (Gibco) according to the manufacturer's protocol. Northern blot for iNOS was performed with 15 μg of RNA per reaction as described previously (Pahan et al., 1997). β-actin was used as control for RNA loading. Gene expression array for inflammatory cytokines (TNFα, IL-1β, IL-6 and IFN-γ) was used according to the manufacturer's protocol (Superarray). Signal quantitation was determined using imaging densitomter (Bio-Rad Lab, Hercules, Calif.). For RT-PCR, RNA was isolated from treated rat brain cerebral cortex by extracting in Trizol as above. cDNA was prepared from 5 μg of total RNA using poly dT as a primer and Moloney murine leukemia virus reverse transcriptase (Promega) as per manufacturer's instructions. 2 μl of cDNA was used to amplify the following products [given as product name, expected size, and forward (F) and reverse (R) primers used]: iNOS, 730 bp. ([NT]-1β, 623 bp. ([…]-α, 473 bp. ([…], 528 bp. […] Transcriptional assays: Primary astrocytes or microglial cell line (BV2) were transiently transfected with NF- ? B-or iNOS-luciferase reporter gene with ? -galactosidase in the presence or absence of dominant negative AMPKα2 or HA-IKK ? by lipofectamine-2000 (astrocytes) and lipofectamine-Plus (BV2, Invitrogen) according to the manufacturer instructions. pcDNA3 was used to normalize all groups to equal amounts of DNA. Luciferase activity was determined using a luciferase kit (Promega).

[4] = system: Microglia; conditions: 10 μM lovastatin or 5 mM NaPA 8 h, LPS 1.0 μg/ml, 24 h
[5] = system: Rat Primary Astrrocytes; conditions: LPS 1.0 μg/ml, 24 h
[6] = system: Macrophages; conditions: 10 μM lovastatin or 5 mM NaPA 8 h, LPS 1.0 μg/ml, 24 h
[7] = system: iNOS; test: LPS/IFN-induced NO production and iNOS expression in C6 glioma cells; format: cell-based, rat; conditions: exogenous glycosphingolipid with D-PDMP
Procedure: C6 rat glioma cells obtained from ATCC were maintained in Dulbecco's modified Eagle's medium (DMEM) (GIBCO, CA) containing 10% fetal bovine serum (FBS) (GIBCO) and 10 ? g/ml gentamicin. All the cultured cells were maintained at 37° C. in 5% CO2/95% air. At 80% confluency, the cells were incubated with serum free DMEM medium for 24 h prior to the incubation with LPS/IFN ? and other chemicals. Assay for NO production. Cells were cultured in 12-well plastic tissue culture plates. After the appropriate treatment, production of NO was determined by an assay of the culture supernatant for nitrite (Green et al., 1982). Briefly, 100 μl of culture supernatant was allowed to react with 100 μl of Griess reagent. The optical density of the assay samples was measured spectrophotometrically at 570 nm. Nitrite concentrations were calculated from a standard curve derived from the reaction of NaNO2 in fresh media. Western Blot Analysis. […] The protein concentration of samples was determined with the detergent compatible protein assay reagent (Bio-Rad Laboratories, CA) using bovine serum albumin (BSA) as the standard. Sample was boiled for 3 min with 0.1 volumes of 10% O-mercaptoethanol and 0.5% bromophenol blue mix. Fifty μg of total cellular protein was resolved by electrophoresis in 8 or 12% polyacrylamide gels, electro-transferred to polyvinylidene difluoride (PVDF) filter and blocked with Tween 20 containing Tris-buffered saline [TBST; 10 mM Trizma base (pH 7.4), 1% Tween 20, and 150 mM NaCl] with 5% skim milk. After incubation with antiserum against iNOS (BD PharMingen, CA), or hRas (Upstate Biotechnology, CA), or phospho-specific MAPK (p42/44) (Signal Transduction), in PVDF buffer for 2 h at room temperature, the filters were washed 3 times with TBST buffer and then incubated with horseradish peroxidase conjugated anti-rabbit or mouse IgG for 1 h. The membranes were autoradiographed by using ECL-plus (Amersham Pharmacia Biotech) after washing with TBST buffer. RT-PCR amplification. […] PCR amplification was conducted in 25 ? l of reaction mixture with 1.0 ? l of cDNA, […] and under the manufacturer's Taq polymerase conditions (Takara, […] Shuzo Co. Ltd, Japan). The sequence of primers used for PCR amplification are as follows; iNOS, (Forward-[NT], Reverse-[NT]), GalT-2 (Forward-[NT], Reverse-[NT]), GAPDH (Forward-[NT], Reverse-[NT]).

[8] = Comparison of biology of IFN-β, GA and statin + GSNO (Table 2)
Source text: FIGS. 28-52 provide additional data that show the effectiveness of statins in treating a variety of inflammatory diseases such as multiple sclerosis, spinal cord injury, stroke, and kinic acid induced seizures. Additionally, Table 2 provides data concerning the treatment of multiple sclerosis (MS) with statins as compared to two other approved MS drugs.

[9] = 10 mg/kg orally, 7 days before KA
[10] = PD98059 pretreatment 0.5 hr before LPS, 24 hrs

Compound: 5′-CGCTTGAGCGCAGACATCTT-3′ (chemistry not given here) [antisense DNA oligomer, 20-mer antisense oligonucleotide targeted against rat lactosylceramide synthase (GalT-2)]
iNOS mRNA and protein levels ([1]; GalT-2 antisense 200 nM oligo, stimulated 2 d after transfection, 6 hrs mRNA, 24 hrs protein): reduced significantly | LPS/IFN-mediated NO production ([1]; GalT-2 antisense 200 nM oligo, stimulated 2 d after transfection, 24 hr): reduced significantly

Compound: CC(C)c1c(C(=O)Nc2ccccc2)c(-c2ccccc2)c(-c2ccc(F)cc2)n1CC[C@@H](O)C[C@@H](O)CC(=O)O [Atorvastatin, atorvastatin]
apoptosis induced by KA in hippocampus (TUNNEL assay, CA1 and CA3) [2, 9]: inhibited | infiltration of macrophages induced by KA in hippocampus (ED-1) [2, 9]: inhibited | KA-induced neuronal cell death in hippocampus (cresyl violet stain) ([2]; statin 10 mg/kg orally, 7 days before KA 10 mg/kg i.p.): inhibited | expression of inflammatory genes (TNF-α, IL-1β, and iNOS) induced by KA in hippocampus (real time PCR) ([2]; statin 10 mg/kg orally, 7 days before KA): inhibited

effect on inhibitory effect of AICAR on LPS induced iNOS-luciferase activity [3]: did not reverse
Compound: CC(C)=CCC/C(C)=C/CC/C(C)=C/COP(=O)(O)OP(=O)(O)O [FPP, farnesyl pyrophosphate]

effect on inhibitory effect of AICAR on LPS induced iNOS-luciferase activity [3]: did not reverse
Compound: CC(C)=CCC/C(C)=C/CC/C(C)=C/CC/C(C)=C/COP(=O)(O)OP(=O)(O)O [GGPP, geranylgeranyl pyrophosphate]

Compound: O=C([O-])Cc1ccccc1.[Na+] [NaPA]
TNF-α ([4]; LPS only 14.5 +/− 2.1): 1.3 +/− 0.2 ng/24 h/mg protein | Il-1β ([4]; LPS only 28.2 +/− 3.4): 2.4 +/− 0.2 ng/24 h/mg protein | NO ([4]; LPS only 81.2 +/− 6.9): 6.9 +/− 0.9 n mol/24 h/mg protein | IL-6 ([4]; LPS only 295.6 +/− 33.5): 9.3 +/− 1.2 ng/24 h/mg protein | TNF-α ([5]; 10 μM lovastatin or 5 mM NaPA 8 h, LPS only 5.3 +/− 0.8): 0.4 +/− 0.06 ng/24 h/mg protein | Il-1β ([5]; 10 μM lovastatin or 5 mM NaPA 8 h, LPS only 10.4 +/− 1.5): 1.1 +/− 0.2 ng/24 h/mg protein | IL-6 ([5]; 10 μM lovastatin or 5 mM NaPA 8 h, LPS only 136.5 +/− 16.8): 1.1 +/− 0.2 ng/24 h/mg protein | NO ([5]; 10 μM lovastatin or 5 mM NaPA 8 h serum free, LPS only 25.3 +/− 3.2): 5.4 +/− 0.6 n mol/24 h/mg protein | TNF-α ([6]; LPS only 18.6 +/− 2.3): 1.7 +/− 0.2 ng/24 h/mg protein | Il-1β ([6]; LPS only 34.6 +/− 4.5): 3.1 +/− 0.4 ng/24 h/mg protein | NO ([6]; LPS only 118.5 +/− 12.5): 9.5 +/− 0.7 n mol/24 h/mg protein | IL-6 ([6]; LPS only 350.0 +/− 27.6): 10.2 +/− 1.4 ng/24 h/mg protein

Compound: COc1cccc(-c2cc(=O)c3ccccc3o2)c1N [PD98059]
NO production [1, 10]: inhibition | iNOS expression [1, 10]: inhibition

effect on inhibitory effect of AICAR on LPS induced iNOS-luciferase activity [3]: did not reverse
Compound: CC(O)(CCO)CC(=O)O (stereo not shown) [mevalonate]

Compound: Glucosylceramide [GluCer]
effect on D-PDMP inhibition of NO production [7]: no effect | effect on D-PDMP inhibition of iNOS mRNA and protein expression [7]: no effect | effect on D-PDMP mediated inhibition of NO production ([1]; 24 hrs): did not reverse

Compound: galactosylceramide [GalCer]
effect on D-PDMP mediated inhibition of NO production ([1]; 24 hrs): did not reverse

Compound: glatiramer acetate [GA]
Decrease expression of adhesion molecules [8]: No | Decrease inflammatory cytokines [8]: Yes | Decreased expression of MHCII [8]: No | Excludes leukocytes from entering CNS [8]: No | Inhibition of MMPs [8]: No | Inhibition of chemokine expression [8]: No | Inhibition of clonal expression of co-stimulatory molecules [8]: Yes | Interferences with T-cell activation [8]: Yes | Leukocyte trafficking across the blood brain barrier (BBB) [8]: No | Neuroprotection [8]: Yes | Protection of BBB [8]: No | Reduced level of co-stimulatory molecules [8]: No | Th1 to Th2 deviation [8]: Yes
